Measured values as given in PMC4848466, “Insights into the activation mechanism of class I HDAC complexes by inositol phosphates” (Nature Communications, 2016).

Legend:
Type in all cases: biochemical
[1] = biological target: T1, HDAC3:SMRT complex (Homo sapiens, UniProt O15379); experiment: Activation of HDAC3:SMRT deacetylase activity by inositol phosphates (BOC-Lys-AMC assay); conditions: BOC-Lys-AMC assay; one-site binding fit of HDAC activity vs inositol phosphate concentration; read-out: Kdapp (apparent Kd from activation titration)
T1 construct: Full-length HDAC3, and residues 350–480 of SMRT were cloned into pcDNA3 vectors; residues 350–480 of SMRT were cloned into pcDNA3 vectors; FLAG tag with TEV protease cleavage site (cleaved yes); made in house; host or cells: HEK293F cells (co-transfection, pcDNA3)
T1 sequence (O15379 whole entry, the tested form may be a part): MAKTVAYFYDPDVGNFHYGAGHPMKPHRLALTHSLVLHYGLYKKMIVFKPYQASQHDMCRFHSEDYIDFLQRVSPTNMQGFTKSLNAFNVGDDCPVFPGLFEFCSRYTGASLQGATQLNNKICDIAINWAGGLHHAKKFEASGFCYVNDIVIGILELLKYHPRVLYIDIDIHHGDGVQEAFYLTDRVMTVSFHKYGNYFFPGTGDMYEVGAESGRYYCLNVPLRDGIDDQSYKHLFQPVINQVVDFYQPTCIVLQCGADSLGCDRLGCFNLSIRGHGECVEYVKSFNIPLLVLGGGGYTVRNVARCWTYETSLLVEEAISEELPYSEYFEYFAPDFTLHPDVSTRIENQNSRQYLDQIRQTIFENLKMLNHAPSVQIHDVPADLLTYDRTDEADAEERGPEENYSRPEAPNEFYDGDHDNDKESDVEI
T1 sequence (Q9Y618 350-480, further chain): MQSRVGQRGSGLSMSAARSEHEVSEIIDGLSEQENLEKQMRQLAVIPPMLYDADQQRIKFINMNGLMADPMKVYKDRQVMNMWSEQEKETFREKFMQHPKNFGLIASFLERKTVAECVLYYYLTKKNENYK
Method: (§1) To understand the stereochemical basis underlying the activation of HDAC3 by inositol phosphates we investigated the ability of a range of inositol phosphates and derivatives to enhance the activity of HDAC3 in deacetylase assays. To achieve this we used an assay based on the complex of HDAC3 with an extended SMRT construct which is stable in the absence of inositol phosphate.
(§2) HDAC activity of the protein complex was measured using an HDAC assay with a BOC-Lys-AMC substrate. 50 nM HDAC3:SMRT or 50 nM HDAC1:MTA1 was incubated with 100 μM BOC-Lys-AMC substrate in a final volume of 50 μl buffer A (50 mM Tris pH 7.5, 50 mM NaCl, 5% Glycerol), in a black 96-well plate for 30 min at 37 °C.
(§3) To test the ability of inositol phosphates and derivatives to activate the complex, 50 nM HDAC3:SMRT (which had been stripped of its endogenous co-purified inositol phosphate) or 50 nM HDAC1:MTA1 was incubated with inositol phosphate or analogue for 30 min at 37 °C before the HDAC activity was measured. All measurements were performed in triplicate and data analysed using GraphPad Prism (version 6.0, GraphPad Software, Inc).

[2] = biological target: T2, HDAC3:SMRT complex (Homo sapiens, UniProt O15379+Q9Y618); experiment: as above
T2 construct: Full-length HDAC3, and residues 350–480 of SMRT were cloned into pcDNA3 vectors; residues 350–480 of SMRT were cloned into pcDNA3 vectors; FLAG tag with TEV protease cleavage site (cleaved yes); made in house; host or cells: HEK293F cells (co-transfection, pcDNA3)
T2 sequence (O15379 whole entry, the tested form may be a part): as the sequence (O15379 whole entry, the tested form may be a part) above
T2 sequence (Q9Y618 350-480): as the sequence (Q9Y618 350-480, further chain) above
Method: as §1, §2, §3

[3] = biological target: HDAC3:SMRT (Homo sapiens, UniProt O15379+Q9Y618); experiment: Michaelis-Menten enzyme kinetics on Caliper EZ Reader with H4K16ac peptide; parameters: Full-length HDAC3, and residues 350–480 of SMRT were cloned into pcDNA3 vectors; residues 350–480 of SMRT were cloned into pcDNA3 vectors; FLAG tag with TEV protease cleavage site (cleaved yes); made in house; host or cells: HEK293F cells (co-transfection, pcDNA3); conditions: H4 12–18K16ac peptide; in the presence of the inositol phosphate
Sequence of HDAC3:SMRT (O15379 whole entry, the tested form may be a part): as the sequence (O15379 whole entry, the tested form may be a part) above
Sequence of HDAC3:SMRT (Q9Y618 350-480): as the sequence (Q9Y618 350-480, further chain) above
Excerpt: (§4) To explore further the differences between the two complexes we established a more physiological, real-time kinetic assay using substrates based on the tails of histones H4 and H3. The peptides tested were; H4 12–18(K16ac), H3 23–29(K27ac) and H3 6–12(K9ac). […] HDAC3:SMRT is most catalytically active against H3 23–29(K27ac) (Supplementary Fig. 7), whereas HDAC1:MTA1 is most catalytically active against H4 12–18(K16ac) (Fig. 4d). In both cases an approximate 3-fold greater kcat is observed for the preferred versus non-preferred substrate, in the absence of inositol phosphate. […] The net effect of both inositol phosphates tested was between a two and fivefold increase in catalytic efficiency (kcat/Km) (Fig. 4c,d, Supplementary Fig. 7).
(§5) Michaelis–Menten kinetics were determined using a HDAC assay on the Caliper EZ Reader II system (Caliper Life Sciences, http://www.caliperls.com). To assess the effect of inositol phosphate, 20 nM HDAC3:SMRT or 80 nM HDAC1:MTA1 were pre-mixed with InsP6 before dilution and addition of fluorescein-labelled H4K16Ac substrate. Reactions were carried out in duplicate in 30 μl reaction volumes, performed at room temperature in 50 mM Tris pH 7.5, 50 mM NaCl, 5% glycerol. Data was analysed using GraphPad Prism (version 6.0).

[4] = biological target: T3, HDAC1:MTA1 (Homo sapiens, UniProt Q13330+Q13547); experiment: as above; conditions: H4 12–18K16ac peptide; in the presence of the inositol phosphate
T3 construct: Full-length HDAC1 and residues 162–354 of MTA1 were cloned into pcDNA3 vectors; residues 162–354 of MTA1 were cloned into pcDNA3 vectors; FLAG tag with TEV protease cleavage site (cleaved yes); made in house; host or cells: HEK293F cells (co-transfection, pcDNA3)
T3 sequence (Q13547 whole entry, the tested form may be a part): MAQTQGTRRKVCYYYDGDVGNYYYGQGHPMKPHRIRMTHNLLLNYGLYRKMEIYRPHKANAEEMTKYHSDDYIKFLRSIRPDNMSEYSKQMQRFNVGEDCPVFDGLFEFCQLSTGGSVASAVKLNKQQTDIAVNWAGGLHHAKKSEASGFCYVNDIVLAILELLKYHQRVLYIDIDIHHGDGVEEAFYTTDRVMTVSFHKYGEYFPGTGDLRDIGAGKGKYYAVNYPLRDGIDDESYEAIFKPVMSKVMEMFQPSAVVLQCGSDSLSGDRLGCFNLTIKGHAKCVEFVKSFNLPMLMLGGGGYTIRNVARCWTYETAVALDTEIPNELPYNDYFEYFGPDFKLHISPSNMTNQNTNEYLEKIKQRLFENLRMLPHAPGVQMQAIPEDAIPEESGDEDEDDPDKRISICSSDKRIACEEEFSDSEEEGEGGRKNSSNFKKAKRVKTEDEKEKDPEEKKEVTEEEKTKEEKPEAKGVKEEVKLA
T3 sequence (Q13330 162-354): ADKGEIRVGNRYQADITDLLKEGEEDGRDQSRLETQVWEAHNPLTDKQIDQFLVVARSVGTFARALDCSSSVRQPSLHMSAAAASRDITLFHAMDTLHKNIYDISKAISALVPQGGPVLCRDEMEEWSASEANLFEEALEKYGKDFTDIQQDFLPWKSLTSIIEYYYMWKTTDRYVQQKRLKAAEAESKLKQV
Excerpt: as §4, §5

[5] = biological target: T4, HDAC1:MTA1 complex (Homo sapiens, UniProt Q13330+Q13547); experiment: Activation of HDAC1:MTA1 deacetylase activity by inositol phosphates (BOC-Lys-AMC assay)
T4 construct: Full-length HDAC1 and residues 162–354 of MTA1 were cloned into pcDNA3 vectors; residues 162–354 of MTA1 were cloned into pcDNA3 vectors; FLAG tag with TEV protease cleavage site (cleaved yes); made in house; host or cells: HEK293F cells (co-transfection, pcDNA3)
T4 sequence (Q13547 whole entry, the tested form may be a part): as the sequence (Q13547 whole entry, the tested form may be a part) above
T4 sequence (Q13330 162-354): as the sequence (Q13330 162-354) above
Method: as §2, §3

[6] = biological target: T5, D99A HDAC1 mutant (Homo sapiens, UniProt Q13330+Q13547, D99A); experiment: Deacetylase activity of D99A HDAC1 mutant (electrophoretic mobility shift assay, caliper platform); conditions: addition of InsP6
T5 construct: Full-length HDAC1 and residues 162–354 of MTA1 were cloned into pcDNA3 vectors; residues 162–354 of MTA1 were cloned into pcDNA3 vectors; FLAG tag with TEV protease cleavage site (cleaved yes); made in house
T5 sequence (Q13547 whole entry D99A, the tested form may be a part): as the sequence (Q13547 whole entry, the tested form may be a part) above, with D99A counted along it
T5 sequence (Q13330 162-354): as the sequence (Q13330 162-354) above
Method: Figure 5 Inhibition of HDAC1:MTA1 by a novel peptide-based inhibitor. (a) Inhibition curve of HDAC1:MTA1 by the histone H4 peptide H4K16Hx. (b)The position of H4K16Hx (pink) bound to the active site of HDAC1 (purple). The sidechain of HDAC1 residue D99 undergoes a significant rearrangement (indicated by arrow) to coordinate binding of the peptide (apo-HDAC1 shown in grey). […] HDAC assays were performed using an electrophoretic mobility shift assay on the caliper platform. Error bars indicate±s.e.m. (n=3).

O=P(O)(O)O[C@H]1[C@H](OP(=O)(O)O)[C@@H](OP(=O)(O)O)[C@H](OP(=O)(O)O)[C@@H](OP(=O)(O)O)[C@H]1OP(=O)(O)O [InsP6, inositol hexaphosphate]
Kd [1]: 600 nM
HDAC3 activation relative to maximal Ins(1,4,5,6)P4-stimulated activity ([2]; BOC-Lys-AMC assay, titration / maximal activation): same degree as Ins(1,4,5,6)P4
increase in apparent affinity compared with Ins(1,4,5,6)P4 ([2]; ratio of apparent Kd values): 16 fold
kcat [3]: 2.59 s⁻¹
kcat [4]: 1.01 s⁻¹
activation of HDAC1:MTA1 complex [5]: can be activated
Kd ([5]; read-out: Kdapp (apparent Kd from activation titration)): 4000 nM
rescue of deacetylase activity of D99A mutant [6]: activity is not rescued
